The target in the test is T1, Human Polθ polymerase domain (aa1820-2590) (Homo sapiens, UniProt O75417).
T1 construct: Human Polθ polymerase domain (aa1820-2590) was expressed in E. coli; made in house; host or cells: E. coli
T1 sequence (O75417 1820-2590): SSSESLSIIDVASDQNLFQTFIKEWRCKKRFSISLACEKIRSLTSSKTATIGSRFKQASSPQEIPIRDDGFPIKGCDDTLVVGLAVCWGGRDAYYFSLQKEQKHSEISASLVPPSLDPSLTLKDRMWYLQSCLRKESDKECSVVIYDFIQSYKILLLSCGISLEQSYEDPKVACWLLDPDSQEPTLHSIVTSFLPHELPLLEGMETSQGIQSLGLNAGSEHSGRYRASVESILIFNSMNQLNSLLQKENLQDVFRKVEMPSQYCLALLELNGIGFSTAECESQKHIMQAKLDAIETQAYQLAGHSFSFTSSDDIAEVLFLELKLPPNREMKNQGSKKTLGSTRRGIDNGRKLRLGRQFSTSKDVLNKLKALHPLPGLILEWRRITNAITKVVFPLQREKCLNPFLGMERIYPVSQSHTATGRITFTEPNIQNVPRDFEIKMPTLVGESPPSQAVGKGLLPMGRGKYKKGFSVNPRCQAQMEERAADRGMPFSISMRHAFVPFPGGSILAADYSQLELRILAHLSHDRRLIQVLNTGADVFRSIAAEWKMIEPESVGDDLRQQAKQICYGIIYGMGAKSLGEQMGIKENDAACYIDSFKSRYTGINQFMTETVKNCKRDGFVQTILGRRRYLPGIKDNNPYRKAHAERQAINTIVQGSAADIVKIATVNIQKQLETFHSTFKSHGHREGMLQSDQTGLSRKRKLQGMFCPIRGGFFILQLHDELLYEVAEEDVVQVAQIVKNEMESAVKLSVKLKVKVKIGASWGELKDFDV
Kind of test: Polθ Polymerase Domain Kinact/KI Assay (PicoGreen). The format is biochemical. As to conditions: 0.8 nM Polθ, 100 nM DNA substrate, kobs vs [I] fit for 2-step covalent inhibitor. In a few lines:
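Covalent inhibitors were tested against E. coli-expressed enzyme (0.8 nM final) with 100 nM annealed DNA substrate and […] in Tris pH 7.5 buffer, 1% DMSO. Reactions were EDTA-quenched over a 0–60 min time course and product DNA detected by PicoGreen fluorescence.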
The compound `Cc1cc(C(F)(F)F)cc(N2C(=O)C[C@@H]3CN(CC45CC(NC(=O)/C=C/CN(C)C)(C4)C5)c4c(C)cccc4N(C)C(=O)[C@H]32)n1` [Example 178, (E)-N-(3-(((3aR, 11aS)-6,10-dimeth-yl-1-(6-methyl-4-(trifluoromethyl)-pyridin-2-yl)-2,11-dioxo-1,2,3,3a,4, 10,11,11a-octa-hydro-5H-benzo [b]pyrrolo[2,3-f] [1,4]diazocin-5-yl)methyl)bicyclo [1.1.1]pentan-1-yl)-4-(dimethyl-amino)but-2-enamide] registered a Kinact/Kl of 1.6e+06 M⁻¹ s⁻¹.
In the case of `Cc1cc(C(F)(F)F)cc(N2C(=O)C[C@@H]3CN(CC45CC(CNC(=O)/C=C/CN(C)C)(C4)C5)c4c(C)cccc4N(C)C(=O)[C@H]32)n1` [Example 179, (E)-N-((3-(((3aR, 11aS)-6,10-dimeth-yl-1-(6-methyl-4-(trifluoromethyl)-pyridin-2-yl)-2,11-dioxo-1,2,3,3a,4, 10,11,11a-octa-hydro-5H-benzo [b]pyrrolo[2,3-f] [1,4]diazocin-5-yl)methyl)bicyclo [1.1.1]pentan-1-yl)methyl)-4-(dimethylamino)-but-2-enamide], the Kinact/Kl was 670000 M⁻¹ s⁻¹.
As for `C=C(CN(C)C)C(=O)N1CC[C@@H](COCCN2C[C@H]3CC(=O)N(c4cc(C(F)(F)F)cc(C)n4)[C@@H]3C(=O)N(C)c3cccc(C)c32)C1` [Example 180, (3aR,11aS)-5-(2-(((R)-1-(2-((dimeth-ylamino)methyl)-acryloyl)pyrrolidin-3-yl)methoxy)eth-yl)-6,10-dimethyl-1-(6-methyl-4-(trifluoromethyl)-pyridin-2-yl)-1,3a,4,5,10,11a-hexahydro-2H-benzo[b]pyrrolo [2,3-f][1,4]diazo-cine-2,11(3H)-dione], the Kinact/Kl was determined as 2.72e+06 M⁻¹ s⁻¹.
`C=C(CN(C)C)C(=O)N1CC[C@H](COCCN2C[C@H]3CC(=O)N(c4cc(C(F)(F)F)cc(C)n4)[C@@H]3C(=O)N(C)c3cccc(C)c32)C1` [Example 181, (3aR,11aS)-5-(2-(((S)-1-(2-((dimeth-ylamino)methyl)-acryloyl)pyrrolidin-3-yl)methoxy)eth-yl)-6,10-dimethyl-1-(6-methyl-4-(trifluoromethyl)-pyridin-2-yl)-1,3a,4,5,10,11a-hexahydro-2H-benzo[b]pyrrolo [2,3-f][1,4]diazo-cine-2,11(3H)-dione]: the Kinact/Kl worked out at 2.26e+06 M⁻¹ s⁻¹.
With `C=C(CN(C)C)C(=O)N1CC(COCCN2C[C@H]3CC(=O)N(c4cc(C(F)(F)F)cc(C)n4)[C@@H]3C(=O)N(C)c3cccc(C)c32)C1` [Example 182, (3aR,11aS)-5-(2-((1-(2-((dimethyl-amino)methyl)-acryloyl)azetidin-3-yl)methoxy)eth-yl)-6,10-dimethyl-1-(6-methyl-4-(trifluoromethyl)-pyridin-2-yl)-1,3a,4,5,10,11a-hexahydro-2H-benzo[b]pyrrolo [2,3-f][1,4]diazo-cine-2,11(3H)-dione], the Kinact/Kl turned out to be 5.23e+06 M⁻¹ s⁻¹.
The same measure for `C=C(CN(C)C)C(=O)N1CC(CCCCN2C[C@H]3CC(=O)N(c4cc(C(F)(F)F)cc(C)n4)[C@@H]3C(=O)N(C)c3cccc(C)c32)C1` [Example 183, (3aR,11aS)-5-(4-(1-(2-((dimethyl-amino)methyl)-acryloyl)azetidin-3-yl)butyl)-6,10-dimethyl-1-(6-methyl-4-(trifluoro-methyl)pyridin-2-yl)-1,3a,4,5,10,11a-hexahydro-2H-benzo[b]pyrrolo [2,3-f][1,4]diazo-cine-2,11(3H)-dione]: 3.8e+06 M⁻¹ s⁻¹.
With `C=C(CN(C)C)C(=O)NC12CC(CN3C[C@H]4CC(=O)N(c5cc(C(F)(F)F)cc(C)n5)[C@@H]4C(=O)N(C)c4cccc(C)c43)(C1)C2` [Example 184, N-(3-(((3aR,11aS)-6,10-dimethyl-1-(6-methyl-4-(trifluoromethyl)-pyridin-2-yl)-2,11-dioxo-1,2,3,3a,4, 10,11,11a-octa-hydro-5H-benzo [b]pyrrolo[2,3-f] [1,4]diazocin-5-yl)methyl)bicyclo [1.1.1]pentan-1-yl)-2-((dimethyl-amino)methyl)-acrylamide], the Kinact/Kl stood at 1.33e+06 M⁻¹ s⁻¹.
`C=C(CN(C)C)C(=O)NCC12CC(CN3C[C@H]4CC(=O)N(c5cc(C(F)(F)F)cc(C)n5)[C@@H]4C(=O)N(C)c4cccc(C)c43)(C1)C2` [Example 185, N-((3-(((3aR,11aS)-6,10-dimethyl-1-(6-methyl-4-(trifluoromethyl)-pyridin-2-yl)-2,11-dioxo-1,2,3,3a,4, 10,11,11a-octa-hydro-5H-benzo [b]pyrrolo[2,3-f] [1,4]diazocin-5-yl)methyl)bicyclo [1.1.1]pentan-1-yl)methyl)-2-((dimethylamino)-methyl)acrylamide] had a Kinact/Kl of 1.27e+06 M⁻¹ s⁻¹.
The compound `C=C(CN(C)C)C(=O)N1CC(c2ccc(CN3C[C@H]4CC(=O)N(c5cc(C(F)(F)F)cc(C)n5)[C@@H]4C(=O)N(C)c4cccc(C)c43)cc2)C1` [Example 186, (3aR,11aS)-5-(4-(1-(2-((dimethyl-amino)methyl)-acryloyl)azetidin-3-yl)benzyl)-6,10-dimethyl-1-(6-methyl-4-(trifluoro-methyl)pyridin-2-yl)-1,3a,4,5,10,11a-hexahydro-2H-benzo[b]pyrrolo [2,3-f][1,4]diazo-cine-2,11(3H)-dione] returned a Kinact/Kl of 3.23e+06 M⁻¹ s⁻¹.
The same measure for `C=C(CN(C)C)C(=O)N1CC(c2cc(CN3C[C@H]4CC(=O)N(c5cc(C(F)(F)F)cc(C)n5)[C@@H]4C(=O)N(C)c4cccc(C)c43)ccc2F)C1` [Example 187, (3aR,11aS)-5-(3-(1-(2-((dimethyl-amino)methyl)-acryloyl)azetidin-3-yl)-4-fluorobenz-yl)-6,10-dimethyl-1-(6-methyl-4-(trifluoromethyl)-pyridin-2-yl)-1,3a,4,5,10,11a-hexahydro-2H-benzo[b]pyrrolo [2,3-f][1,4]diazo-cine-2,11(3H)-dione]: 1.41e+06 M⁻¹ s⁻¹; for `C=C(CN(C)C)C(=O)NCc1ccc(CN2C[C@H]3CC(=O)N(c4cc(C(F)(F)F)cc(C)n4)[C@@H]3C(=O)N(C)c3cccc(C)c32)cc1` [Example 189, N-(4-(((3aR,11aS)-6,10-dimethyl-1-(6-methyl-4-(trifluoromethyl)-pyridin-2-yl)-2,11-dioxo-1,2,3,3a,4, 10,11,11a-octa-hydro-5H-benzo [b]pyrrolo[2,3-f] [1,4]diazocin-5-yl)-methyl)benzyl)-2-((dimethylamino)-methyl)acrylamide]: 3.35e+06 M⁻¹ s⁻¹.
`C=C(CN(C)C)C(=O)NCc1ccc(CN2C[C@H]3CC(=O)N(c4cc(C(F)(F)F)cc(C)n4)[C@@H]3C(=O)N(C)c3cccc(C)c32)cn1` [Example 190, N-((5-(((3aR,11aS)-6,10-dimethyl-1-(6-methyl-4-(trifluoro-methyl)pyridin-2-yl)-2,11-dioxo-1,2,3,3a,4,10,11, 11a-octahydro-5H-benzo[b]pyrrolo [2,3-f][1,4]diazo-cin-5-yl)methyl)-pyridin-2-yl)meth-yl)-2-((dimethyl-amino)methyl)-acrylamide] showed a Kinact/Kl of 2.93e+06 M⁻¹ s⁻¹.
With `C=C(CN(C)C)C(=O)N1CC(OCCCN2C[C@H]3CC(=O)N(c4cc(C(F)(F)F)cc(C)n4)[C@@H]3C(=O)Nc3cccc(C)c32)C1` [Example 191, (3aR,11aS)-5-(3-((1-(2-((dimethyl-amino)methyl)-acryloyl)azetidin-3-yl)oxy)propyl)-6-methyl-1-(6-methyl-4-(trifluoro-methyl)pyridin-2-yl)-1,3a,4,5,10, 11a-hexahydro-2H-benzo[b]pyr-rolo[2,3-f][1,4] diazocine-2, 11(3H)-dione], the Kinact/Kl was 1.4e+06 M⁻¹ s⁻¹.
The same measure for `C=C(CN(C)C)C(=O)N1CC(CCCCN2C[C@H]3CC(=O)N(c4cc(C(F)(F)F)cc(C)n4)[C@@H]3C(=O)Nc3cccc(C)c32)C1` [Example 192, (3aR,11aS)-5-(4-(1-(2-((dimethyl-amino)methyl)-acryloyl)azetidin-3-yl)butyl)-6-meth-yl-1-(6-methyl-4-(trifluoromethyl)-pyridin-2-yl)-1,3a,4,5,10,11a-hexahydro-2H-benzo[b]pyrrolo [2,3-f][1,4]diazo-cine-2,11(3H)-dione]: 2.18e+06 M⁻¹ s⁻¹.
On to `C=C(CN1CCN(C)CC1)C(=O)N1CC(COCCN2C[C@H]3CC(=O)N(c4cc(C(F)(F)F)cc(C)n4)[C@@H]3C(=O)N(C)c3cccc(C)c32)C1` [Example 193, (3aR,11aS)-6,10-dimethyl-1-(6-methyl-4-(trifluoro-methyl)pyridin-2-yl)-5-(2-((1-(2-((4-methylpiperazin-1-yl)methyl)acrylo-yl)azetidin-3-yl)-methoxy)ethyl)-1,3a,4,5,10,11a-hexahydro-2H-benzo[b]pyrrolo [2,3-f][1,4]diazo-cine-2,11(3H)-dione], for which the Kinact/Kl came to 2.58e+06 M⁻¹ s⁻¹.

The values are drawn from patent US20250230165A1, “HETEROCYCLIC COMPOUNDS FOR USE IN THE TREATMENT OF CANCER” (ARTIOS PHARMA LIMITED, priority 2021, published 2025).
